Results published in ChEMBL document CHEMBL3853315, “Targeting the Translesion Synthesis Pathway for the Development of Anti-Cancer Chemotherapeutics” (J Med Chem, 2016).

Columns and labels:
[1] = Growth inhibition of human MDA-MB-231 cells after 72 hrs by MTT assay; format: functional; conditions: MDA-MB-231, 72 h
[2] = biological target: Ubiquitin carboxyl-terminal hydrolase 1/WD repeat-containing protein 48 (Homo sapiens, UniProt O94782); test: Inhibition of human USP1/UAF1 complex using Ub-Rho as substrate preincubated for 30 mins followed by substrate addition by fluorescence-based HTS assay; format: protein-complex assay
Sequence of Ubiquitin carboxyl-terminal hydrolase 1/WD repeat-containing protein 48 (Homo sapiens, UniProt O94782) (O94782 whole entry): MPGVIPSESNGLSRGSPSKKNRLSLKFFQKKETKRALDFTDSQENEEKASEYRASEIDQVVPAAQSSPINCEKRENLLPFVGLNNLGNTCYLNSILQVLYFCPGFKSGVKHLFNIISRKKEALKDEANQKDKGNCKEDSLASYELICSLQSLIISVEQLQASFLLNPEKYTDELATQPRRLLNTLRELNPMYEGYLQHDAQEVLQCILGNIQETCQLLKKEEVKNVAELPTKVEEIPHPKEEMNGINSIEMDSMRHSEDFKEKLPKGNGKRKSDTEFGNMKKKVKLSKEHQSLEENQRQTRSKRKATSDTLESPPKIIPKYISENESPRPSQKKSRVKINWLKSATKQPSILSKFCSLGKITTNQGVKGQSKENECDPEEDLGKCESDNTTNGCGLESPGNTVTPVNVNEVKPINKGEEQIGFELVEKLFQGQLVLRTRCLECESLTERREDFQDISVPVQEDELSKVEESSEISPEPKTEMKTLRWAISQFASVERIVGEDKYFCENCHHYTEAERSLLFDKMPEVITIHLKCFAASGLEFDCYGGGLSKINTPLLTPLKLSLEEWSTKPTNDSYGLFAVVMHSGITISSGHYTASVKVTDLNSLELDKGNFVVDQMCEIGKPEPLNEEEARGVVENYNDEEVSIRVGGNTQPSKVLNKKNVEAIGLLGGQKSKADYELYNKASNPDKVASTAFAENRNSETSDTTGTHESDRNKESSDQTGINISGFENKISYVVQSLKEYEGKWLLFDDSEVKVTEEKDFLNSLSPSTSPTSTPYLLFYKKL
Sequence of Ubiquitin carboxyl-terminal hydrolase 1/WD repeat-containing protein 48 (Homo sapiens, UniProt O94782) (Q8TAF3 whole entry, further chain): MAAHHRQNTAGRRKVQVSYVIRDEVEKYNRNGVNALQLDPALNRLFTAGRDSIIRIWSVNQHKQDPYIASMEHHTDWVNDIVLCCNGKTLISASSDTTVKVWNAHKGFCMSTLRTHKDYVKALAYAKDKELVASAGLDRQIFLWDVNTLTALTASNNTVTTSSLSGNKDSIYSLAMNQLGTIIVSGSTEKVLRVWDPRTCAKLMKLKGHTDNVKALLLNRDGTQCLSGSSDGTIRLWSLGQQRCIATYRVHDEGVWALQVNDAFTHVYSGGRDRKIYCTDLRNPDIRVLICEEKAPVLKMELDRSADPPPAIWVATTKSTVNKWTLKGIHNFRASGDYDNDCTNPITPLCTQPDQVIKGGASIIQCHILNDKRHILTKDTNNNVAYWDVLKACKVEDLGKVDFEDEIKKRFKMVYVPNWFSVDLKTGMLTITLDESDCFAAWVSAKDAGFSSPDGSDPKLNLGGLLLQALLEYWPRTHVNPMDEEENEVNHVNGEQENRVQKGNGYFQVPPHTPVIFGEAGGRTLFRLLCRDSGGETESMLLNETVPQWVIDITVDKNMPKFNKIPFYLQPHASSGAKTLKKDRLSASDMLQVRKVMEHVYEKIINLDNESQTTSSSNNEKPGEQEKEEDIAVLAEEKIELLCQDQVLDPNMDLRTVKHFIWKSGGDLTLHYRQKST

[3] = biological target: T1, Ubiquitin carboxyl-terminal hydrolase 1/WD repeat-containing protein 48 (Homo sapiens, UniProt O94782+Q8TAF3); test: Inhibition of USP1/UAF1 complex in human H596 cells assessed as potentiation of cisplatin-induced cell killing by measuring cisplatin GI50 at 1:4 cisplatin to compound ratio pretreated for 48 hrs followed by addition of fresh growth medium measured after 5 to 10 days by colony forming assay (reference value: 486 nM); format: cell-based
T1 sequence (O94782 whole entry): as the sequence (O94782 whole entry) above
T1 sequence (Q8TAF3 whole entry): as the sequence (Q8TAF3 whole entry, further chain) above

[4] = biological target: T1, Ubiquitin carboxyl-terminal hydrolase 1/WD repeat-containing protein 48; test: Inhibition of USP1/UAF1 complex in HEK293T cells assessed as decrease in ability of DNA polymerase eta to bypass UV-induced DNA lesions after 24 hrs by strand specific PCR-based competitive replication and adduct bypass assay; format: cell-based; conditions: HEK-293T, concentration not given here
DNA polymerase iota = biological target: T2, DNA polymerase iota (Homo sapiens, UniProt Q9UNA4); test: Inhibition of human recombinant DNA polymerase iota expressed in Baculovirus expression system using TAMRA/BHQ-2-labeled primer/template measured at 2 to 6 mins by reporter-strand displacement assay
T2 sequence (Q9UNA4 whole entry): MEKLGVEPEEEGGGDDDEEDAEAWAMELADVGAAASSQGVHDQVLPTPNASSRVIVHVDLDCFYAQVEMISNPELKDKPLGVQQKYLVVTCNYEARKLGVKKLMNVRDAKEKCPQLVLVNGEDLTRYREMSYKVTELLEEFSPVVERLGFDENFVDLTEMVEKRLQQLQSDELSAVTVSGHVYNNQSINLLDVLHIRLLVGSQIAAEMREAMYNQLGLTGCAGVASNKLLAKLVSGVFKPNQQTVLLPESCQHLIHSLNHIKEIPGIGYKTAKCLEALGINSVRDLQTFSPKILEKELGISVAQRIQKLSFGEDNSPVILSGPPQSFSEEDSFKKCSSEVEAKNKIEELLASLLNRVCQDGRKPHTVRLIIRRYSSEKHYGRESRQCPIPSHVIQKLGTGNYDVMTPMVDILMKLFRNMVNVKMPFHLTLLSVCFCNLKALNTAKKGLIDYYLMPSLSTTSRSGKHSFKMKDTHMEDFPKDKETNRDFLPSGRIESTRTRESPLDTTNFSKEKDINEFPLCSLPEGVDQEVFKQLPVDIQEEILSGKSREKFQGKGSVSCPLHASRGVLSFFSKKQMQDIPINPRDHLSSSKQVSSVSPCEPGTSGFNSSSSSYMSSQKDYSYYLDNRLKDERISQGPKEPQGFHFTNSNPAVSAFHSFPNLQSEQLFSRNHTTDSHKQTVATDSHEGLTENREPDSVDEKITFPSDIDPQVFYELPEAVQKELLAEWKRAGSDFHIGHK

DNA polymerase eta = biological target: T3, DNA polymerase eta (Homo sapiens, UniProt Q9Y253); test: Inhibition of human recombinant DNA polymerase eta expressed in Baculovirus expression system using TAMRA/BHQ-2-labeled primer/template measured at 2 to 6 mins by reporter-strand displacement assay
T3 sequence (Q9Y253 whole entry): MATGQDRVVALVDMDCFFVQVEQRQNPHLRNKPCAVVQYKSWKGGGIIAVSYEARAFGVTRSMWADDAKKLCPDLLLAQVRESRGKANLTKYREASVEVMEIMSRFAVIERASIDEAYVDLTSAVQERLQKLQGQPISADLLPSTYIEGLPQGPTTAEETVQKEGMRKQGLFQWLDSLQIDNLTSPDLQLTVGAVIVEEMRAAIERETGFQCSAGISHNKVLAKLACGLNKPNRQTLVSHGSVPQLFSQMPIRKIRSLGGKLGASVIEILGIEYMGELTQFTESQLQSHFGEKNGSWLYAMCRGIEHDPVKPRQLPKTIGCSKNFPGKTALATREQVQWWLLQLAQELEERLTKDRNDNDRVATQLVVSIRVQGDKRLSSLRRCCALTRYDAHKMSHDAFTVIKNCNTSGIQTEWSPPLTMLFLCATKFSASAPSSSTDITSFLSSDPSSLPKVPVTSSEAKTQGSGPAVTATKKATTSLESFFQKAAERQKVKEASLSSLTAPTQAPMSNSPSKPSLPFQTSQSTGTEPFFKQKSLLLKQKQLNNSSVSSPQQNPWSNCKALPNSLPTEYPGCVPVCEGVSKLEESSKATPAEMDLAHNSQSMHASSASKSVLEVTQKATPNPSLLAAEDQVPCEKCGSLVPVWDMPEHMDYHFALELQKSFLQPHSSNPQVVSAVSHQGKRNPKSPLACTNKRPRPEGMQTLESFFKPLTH

DNA polymerase kappa = biological target: T4, DNA polymerase kappa (Homo sapiens, UniProt Q9UBT6); test: Inhibition of human DNA polymerase kappa (19 to 526 residues)-mediated TLS past acrolein derived ring-opened reduced form of gamma-HOPdG lesions preincubated for 15 mins followed by DNA substrate addition measured after 30 mins in presence of dCTP and dGTP by radioactive gel-based primer extension assay
T4 sequence (Q9UBT6 whole entry): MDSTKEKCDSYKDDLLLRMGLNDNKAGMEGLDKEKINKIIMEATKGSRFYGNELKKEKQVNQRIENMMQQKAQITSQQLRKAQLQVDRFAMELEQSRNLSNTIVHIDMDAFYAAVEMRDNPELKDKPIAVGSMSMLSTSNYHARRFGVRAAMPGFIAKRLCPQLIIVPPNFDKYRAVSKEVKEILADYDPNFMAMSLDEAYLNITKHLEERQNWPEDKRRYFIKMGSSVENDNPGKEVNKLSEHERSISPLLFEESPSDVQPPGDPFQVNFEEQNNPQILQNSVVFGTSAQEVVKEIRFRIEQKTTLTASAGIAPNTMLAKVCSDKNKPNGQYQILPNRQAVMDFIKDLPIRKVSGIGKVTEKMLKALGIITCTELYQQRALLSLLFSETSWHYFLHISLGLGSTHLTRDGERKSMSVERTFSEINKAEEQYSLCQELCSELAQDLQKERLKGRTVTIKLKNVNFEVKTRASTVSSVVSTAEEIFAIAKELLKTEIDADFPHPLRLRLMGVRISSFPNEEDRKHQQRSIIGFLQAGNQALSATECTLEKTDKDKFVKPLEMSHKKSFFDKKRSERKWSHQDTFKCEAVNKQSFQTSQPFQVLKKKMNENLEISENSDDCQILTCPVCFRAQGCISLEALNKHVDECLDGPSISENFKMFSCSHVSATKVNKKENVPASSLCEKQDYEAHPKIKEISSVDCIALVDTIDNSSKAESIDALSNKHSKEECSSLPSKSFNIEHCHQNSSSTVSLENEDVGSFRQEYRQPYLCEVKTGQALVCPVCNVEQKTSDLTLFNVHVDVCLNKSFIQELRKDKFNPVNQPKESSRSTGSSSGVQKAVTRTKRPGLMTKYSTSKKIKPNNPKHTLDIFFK

[5] = biological target: T1, Ubiquitin carboxyl-terminal hydrolase 1/WD repeat-containing protein 48; test: Inhibition of human USP1/UAF1 complex using Ub-Rho as substrate by qHTS assay; format: protein-complex assay

## Nc1nc(COC(=O)c2ccc([N+](=O)[O-])cc2)nc(Nc2ccccc2)n1
[1]
  GI50: 10000 nM

## Cc1ccc(Nc2nc(N)nc(COC(=O)c3ccc([N+](=O)[O-])cc3)n2)cc1
[1]
  GI50: 10000 nM

## O=C1c2ccccc2C(=O)C2OC(c3ccc(F)cc3)=NC12 (centres undefined)
[2]
  IC50: 880 nM

## Cc1cnc(-c2ccccc2C(C)C)nc1NCc1ccc(-n2ccnn2)cc1
[3]
  GI50: 59 nM
[4]
  inhibition: 31%

## O=C(O)C1=CC(=C(c2ccc(O)c(C(=O)O)c2)c2ccc(O)c(C(=O)O)c2)C=CC1=O [AURINTRICARBOXYLIC ACID]
DNA polymerase iota
  IC50: 75 nM
DNA polymerase eta
  IC50: 75 nM

## CCOc1nc2cccc(C(=O)OC(C)OC(=O)OC3CCCCC3)c2n1Cc1ccc(-c2ccccc2-c2nnn[nH]2)cc1 (centres undefined) [CANDESARTAN CILEXETIL]
DNA polymerase kappa
  IC50: 5600 nM

## O=c1oc2c(O)c(O)cc3c(=O)oc4c(O)c(O)cc1c4c23 [ELLAGIC ACID]
DNA polymerase iota
  IC50: 62 nM
DNA polymerase eta
  IC50: 62 nM

## CC(C)(Sc1ccc(CCN(CCCCC2CCCCC2)C(=O)NC2CCCCC2)cc1)C(=O)O [GW7647]
[5]
  IC50: 5000 nM

## O=c1[nH]c2ccccc2n1C1CCN(CCCC(c2ccc(F)cc2)c2ccc(F)cc2)CC1 [PIMOZIDE]
[5]
  IC50: 2000 nM

## CC(=O)c1c(O)c(C)c(O)c(Cc2c(O)c3c(c(C(=O)/C=C/c4ccccc4)c2O)OC(C)(C)C=C3)c1O [ROTTLERIN]
[5]
  IC50: 8000 nM

## CN1CCN(CCCN2c3ccccc3Sc3ccc(C(F)(F)F)cc32)CC1 [TRIFLUOPERAZINE]
[5]
  IC50: 8000 nM
